Experimental data from patent publication US20010051654A1, “Treatment of inflammatory and autoimmune diseases” (priority 1997, published 2001).
Read-outs that look alike come from different tables or passages of the source.

Key:
[1] = design: species or system Sprague-Dawley rats; conditions: rat, in vivo, iv
Experimental: A single dose intravenous pharmacokinetics study with N-(pyrazine)carbonyl-L-phenylalanine-L-leucine boronic acid (1) was conducted in Sprague-Dawley rats (140 to 280 g). Animals were assigned to 3 groups (6/sex in Groups 1 and 2; 9/sex in Group 3). Animals in groups 1, 2, and 3 received 0.03, 0.1 or 0.3 mg/kg of 1, respectively, in the same dose volume.
Blood samples (approximately 1.0 mL) were collected from the jugular vein of animals pre-dose and at approximately 10 and 30 min and 1, 3 and 24 h post-dose on Day 1.

20 S proteasome [2] = experiment: Ex vivo 20 S proteasome activity in peripheral white blood cells of mice
Experimental: (§1) This preparation procedure applies to blood samples collected from mammals, particularly rats, mice, dogs, pigs, rabbits, non-human primates, or human subjects. Peripheral white blood cells are separated from blood samples upon collection for storage at about −70° C. until tested. To avoid interference with the assay due to the presence of endogenous proteasome inhibitors, it is important that red blood cells be rigorously excluded.
The blood sample is diluted 1:1 (v/v) with sterile saline, and the blood-saline mixture is layered over NYCOPREP™ separation medium (GIBCO BRL Products) in a 14×75 mm polystyrene test tube at a ratio of approximately 2:1 blood:NYCOPREP™. The sample is centrifuged at 500 x g for approximately 30 minutes at room temperature. The top layer is removed, leaving ˜2-3 mm of the cell band between the top and bottom layers. The remaining cell band is transferred by pipette to a clean centrifuge tube. The cell band is washed with 3 mL of cold phosphate-buffered saline and centrifuged at 400 x g for 5 minutes at 4° C. The supernatant is poured off and the pellet is resuspended in ˜1 mL of cold phosphate-buffered saline. The suspension is transferred to a 1.5 mL Eppendorf microfuge tube and microfuged at 6600 x g for approximately 10 minutes at 4° C. […]
The amount of 20 S proteasome activity in the test sample is calculated according to the following formula: [formula] […]

20 S proteasome [3] = experiment: Ex vivo 20 S proteasome activity in peripheral white blood cells of rats
Experimental: as §1
The blood sample is diluted 1:1 (v/v) with sterile saline, and the blood-saline mixture is layered over NYCOPREP™ separation medium (GIBCO BRL Products) in a 14×75 mm polystyrene test tube at a ratio of approximately 2:1 blood:NYCOPREP™. The sample is centrifuged at 500 x g for approximately 30 minutes at room temperature. The top layer is removed, leaving ˜2-3 mm of the cell band between the top and bottom layers. The remaining cell band is transferred by pipette to a clean centrifuge tube. The cell band is washed with 3 mL of cold phosphate-buffered saline and centrifuged at 400 x g for 5 minutes at 4° C. The supernatant is poured off and the pellet is resuspended in ˜1 mL of cold phosphate-buffered saline. The suspension is transferred to a 1.5 mL Eppendorf microfuge tube and microfuged at 6600 x g for approximately 10 minutes at 4° C. The supernatant is aspirated off and the cell pellet is stored at −70° C.±10° C.
Measurement of this rate in the absence and in the presence of an inhibitor allows a determination of how enzyme is bound by inhibitor. This assay is used to measure 20 S proteasome activity in peripheral white blood cells in mammals, particularly rats, mice, dogs, pigs, rabbits, non-human primates, or human subjects.
The amount of 20 S proteasome activity in the test sample is calculated according to the following formula: [formula]
Dose formulations of 1 were prepared daily during the course of the study. Dilutions were prepared from a stock solution. The stock solution of 1 was made up in 98% saline (0.9%), 2% ethanol with 0.1% ascorbic acid. Dilutions of the stock were made in the same vehicle.
Drugs were administered in vehicle intravenously (IV) using a dose volume of 100 μL per mouse or 1.0 mL/kg in rats. Control groups were administered with the vehicle (98% saline [0.9%], 2% ethanol, 0.1% ascorbic acid). Animals were dosed with 1 as a single IV bolus given either once or on multiple occasions.
Following IV dosing with 1, blood was withdrawn at various time points and peripheral white blood cells were isolated.
Blood samples were collected at 1.0, 24 and 48 h following administration of 1.
In an additional repeat dose study, male Sprague-Dawley rats (250 to 450 g; n=6 per group) were treated with twice weekly intravenous doses of 1 (0.01 to 0.35 mg/kg/day in a dose volume of 1.0 mL/kg) for two weeks. The vehicle was 0. […] Blood samples were collected 1.0 h after the last dose for evaluation of 20 S proteasome activity.

20 S proteasome [4] = target: T1, 20 S proteasome (Rattus norvegicus, UniProt P28075)
T1 sequence (P28075 60-263): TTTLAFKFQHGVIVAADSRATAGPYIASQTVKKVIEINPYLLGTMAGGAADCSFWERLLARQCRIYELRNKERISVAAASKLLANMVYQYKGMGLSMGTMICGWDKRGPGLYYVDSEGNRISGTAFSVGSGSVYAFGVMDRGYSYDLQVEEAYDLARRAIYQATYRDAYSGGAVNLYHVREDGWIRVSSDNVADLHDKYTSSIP
Experimental: In two studies, female Wistar rats (150 to 200 g) were administered a single intravenous dose of 1 (0.03, 0.1 and 0.3 mg/kg in a dose volume of 1.0 mL/kg). […] Tissue samples were collected from liver and brain at 1.0, 24 and 48 h following administration for evaluation of 20 S proteasome activity.
In a third study, male Sprague-Dawley rats (250 to 450 g) were administered a single intravenous dose of 1 (0.1 and 0.3 mg/kg in a dose volume of 1.0 mL/kg). […] Blood and tissue samples were collected 1.0 h following administration for evaluation of 20 S proteasome activity. The tissues collected were brain, colon, liver, muscle (gastrocnemius), prostate and testes.

20 S proteasome [5] = experiment: Ex vivo 20 S proteasome activity in primate white blood cells; design: species or system Cynomolgus monkeys
Experimental: (§2) Male and female Cynomolgus monkeys (2.2 to 3.5 kg) were assigned to four groups (5/sex/group). Each group received 0 (vehicle control), 0.045, 0.067 or 0.100 mg/kg/dose of 1 as a single intravenous injection in a dose volume of 0.3 mL/kg twice weekly for 4 weeks (days 1, 5, 8, 12, 15, 19, 22 and 26). […] Three males from the control, low- and mid-dose groups, two high-dose males, and three females/group were sacrificed at the end of treatment on Day 27. Two animals/sex/group were designated as recovery animals and received treatment for 4 weeks followed by 2 weeks of recovery; they were sacrificed on Day 41.
(§3) Blood was collected for 20 S proteasome activity determination prior to treatment, at 1.0 h after dosing on Days 1, 8, 15 and 22, and at 1.0 h prior to dosing on Days 5, 12, 19 and 26; and on Days 31, 34, 38, and 41 (recovery sacrifice animals).

20 S proteasome [6] = experiment: Chymotryptic and tryptic assays in rat white blood cell lysates; format: biochemical; conditions: fit, FIG. 19
Source text: Data was fitted as in Example 10, to give kc/kt=17.6±and βt=1.1±0.2 (FIG. 19).

20 S proteasome [7] = experiment: Chymotryptic to tryptic activity ratio assay, human samples; format: biochemical
Source text: βt=activation factor determined upon titration of the proteasome inhibitor. For the proteasome inhibitor 1, βt=1.28 in human samples.

[8] = Twice weekly intravenous dosing for 4 weeks in Cynomolgus monkeys, clinical condition; format: in vivo; conditions: one high-dose male (0.100 mg/kg/dose), Day 26 after receiving 8 doses
Experimental: as §2, §3

[9] = test system: 20 S proteasome from rabbit reticulocytes; experiment: Chymotryptic and tryptic activities of purified 20 S proteasome from rabbit reticulocytes
Experimental: Chymotryptic and tryptic assays were performed as described in Examples 3 and 5 at increasing concentrations of the proteasome inhibitor 1.

[10] = test system: actively sensitized Brown Norway rats; experiment: Allergen-induced pulmonary leukocyte accumulation in actively sensitized Brown Norway rats (3b alone); format: in vivo
Experimental: Rats. Male Brown Norway rats were supplied by Harlan Olac Limited (Bicester, Oxon, UK) and delivered within the weight range of 180-200 g. Following acclimatization for at least five days, animals were actively sensitized over a 3-week period and were within the weight range 250-300 g at the time of allergen exposure. Food and water were provided ad libitum.
Sensitization. Ovalbumin (OA; 10 μg) mixed with aluminum hydroxide gel (10 mg) will be injected (0.5 mL, i.p.) into Brown Norway rats and repeated 7 and 14 days later.
Drug Treatment. On day 21, sensitized rats were anaesthetized (halothane 5% in O2) and 3b, dexamethasone, or vehicle (lactose) was instilled via a cannula placed directly into the trachea at 1 hour prior to OA exposure. This procedure was repeated at 24 hours and 48 hours after OA exposure.
Challenge. Following recovery, sensitized animals were restrained in plastic tubes and exposed (60 min) to an aerosol of OA (10 mg/mL) using a nose-only exposure system. Animals were sacrificed 72 hours later with pentobarbital (250 mg/kg i.p.).
Analysis. The lungs were lavaged using 3 aliquots (4 mL) of Hank's solution (HBSS x 10, 100 mL; EDTA 100 mM, 100 mL; HEPES 1M, 10 mL made to […] with water); recovered cells were pooled and the total volume of recovered fluid was adjusted to 12 mL by addition of Hank's solution. Total cells were counted (Sysmex Microcell Counter F-500, TOPA Medical Electronics Ltd., Japan). Smears were made by diluting recovered fluid (to approximately 10^6 cells/mL) and spinning an aliquot (100 μL) in a centrifuge (Cytospin, Shandon, UK). Smears were air dried, fixed using a solution of fast green in methanol (2 mg/L) for 5 seconds and stained with eosin G (5 seconds) and thiazine (5 seconds) (Diff-Quik, Baxter Dade Ltd, Switzerland) in order to differentiate eosinophils, neutrophils, macrophages and lymphocytes. A total of 500 cells per smear were counted by light microscopy under oil immersion (x 1000).

[11] = alternate daily IV for 14 days, 24 h after last dose
[12] = daily IV for 7 days, 24 h after last dose
[13] = once weekly IV for 8 weeks, 24 h after last dose
[14] = 1.0 h after single IV 0.1 and 0.3 mg/kg, male Sprague-Dawley rats
[15] = 0.1 and 0.3 mg/kg i.t. 1 h before, 24 h and 48 h after OA, 72 h
[16] = dose dependence, 72 hours after aerosolized ovalbumin

CC(C)C[C@H](NC(=O)[C@H](Cc1ccccc1)NC(=O)c1cnccn1)B(O)O [Compound 1, N-(pyrazine)carbonyl-L-phenylalanine-L-leucine boronic acid]
clearance from the blood [1]: rapidly cleared
time to peak concentration (Tmax) ([1]; 0.3 mg/kg): ~10 min
20 S proteasome activity in white blood cells (20 S proteasome [2]; 1.0 h after single IV 0.1 to 3.0 mg/kg, all dose groups): significant (p<0.05) dose-related decrease
20 S proteasome activity in white blood cells (20 S proteasome [2]; 24 h after single IV 0.1 to 3.0 mg/kg): starts to recover
20 S proteasome activity in white blood cells (20 S proteasome [3]; 1.0 h after single IV 0.03 to 0.3 mg/kg, female Wistar rats): significant (p<0.05) dose-related decrease
20 S proteasome activity in white blood cells (20 S proteasome [3]; 24 h after single IV 0.03 to 0.3 mg/kg, female Wistar rats): smaller, but remained significant (p <0.05) in the higher dose groups
20 S proteasome activity in white blood cells (20 S proteasome [3]; 48 h after single IV 0.03 to 0.3 mg/kg, female Wistar rats): no longer significantly decreased
20 S proteasome activity in white blood cells (20 S proteasome [3]; [11]): significant dose-related decrease
dose groups with significant (p<0.05) decrease in 20 S proteasome activity (20 S proteasome [3]; [11]): > 0.2 mg/kg
20 S proteasome activity in white blood cells (20 S proteasome [3]; [12]): dose-related decrease
doses with significant inhibition of 20 S proteasome activity (20 S proteasome [3]; [12]): > 0.05 mg/kg
20 S proteasome activity in white blood cells (20 S proteasome [3]; [13]): significant (p<0.05) dose-related decrease
dose groups with significant (p<0.05) decrease in 20 S proteasome activity (20 S proteasome [3]; [13]): > 0.1 mg/kg
20 S proteasome activity in white blood cells (20 S proteasome [3]; twice weekly IV for 2 weeks (4 doses, 0.01 to 0.35 mg/kg/day), 1.0 h after last dose, male Sprague-Dawley rats): dose-related decrease
dose groups with significant (p<0.05) decrease in 20 S proteasome activity (20 S proteasome [3]; twice weekly IV for 2 weeks, 1.0 h after last dose, male Sprague-Dawley rats): > 0.03 mg/kg
20 S proteasome activity in rat liver (20 S proteasome [4]; 1.0 h after single IV 0.03, 0.1, 0.3 mg/kg, female Wistar rats): significant (p<0.05) dose-related decrease
20 S proteasome activity in peripheral white blood cells, colon, liver, muscle (gastrocnemius), and prostate (20 S proteasome [4]; [14]): Significant (p<0.05) dose-related decreases
20 S proteasome inhibition in brain and testes (20 S proteasome [4]; [14]): No 20 S proteasome inhibition
20 S proteasome activity in rat liver (20 S proteasome [4]; 24 h after single IV, high dose group 0.3 mg/kg, female Wistar rats): smaller, but remained significant (p<0.05) in the high dose group
20 S proteasome activity in rat liver (20 S proteasome [4]; 48 h after single IV, female Wistar rats): returned to baseline
penetration into brain tissue (20 S proteasome [4]; inferred from absent 20 S proteasome inhibition, female Wistar rats): lack of penetration
penetration into brain and testes (20 S proteasome [4]; inferred from absent 20 S proteasome inhibition, male Sprague-Dawley rats): lack of 1 penetration
20 S proteasome inhibition in brain tissue (20 S proteasome [4]; single IV 0.03, 0.1, 0.3 mg/kg, female Wistar rats): No 20 S proteasome inhibition
white blood cell 20 S proteasome activity (20 S proteasome [5]; 1.0 h after dosing, 0.045, 0.067 or 0.100 mg/kg/dose IV twice weekly for 4 weeks): significant and dose-related decrease
white blood cell 20 S proteasome activity (20 S proteasome [5]; 72 hours after dosing, prior to the subsequent dose): recovered
white blood cell 20 S proteasome activity of the moribund animal (20 S proteasome [5]; high-dose male at sacrifice on Day 26 after 8 doses): low residual 20 S proteasome activity
βt (activation factor of tryptic activity) (20 S proteasome [6]): 1.1±0.2
βt (activation factor determined upon titration of the proteasome inhibitor) (20 S proteasome [7]): 1.28
clinical condition [8]: sacrificed in moribund condition
βc (factor for chymotryptic activity of the E•I complex; 0 = total inhibition) [9]: 0
chymotryptic activity (FIG. 17) ([9]; increasing concentrations of 1): fully inhibits
tryptic activity (FIG. 17) ([9]; increasing concentrations of 1): activation
βt (activation factor of tryptic activity) ([9]; purified 20 S proteasome from rabbit reticulocytes, fit, FIG. 18): 1.38±0.05

CCCC1C(=O)NC2(C(O)C(C)C)OC(=O)C12 (stereo not drawn) [Compound 3b, 7-n-propyl-clasto-lactacystin β-lactone]
influx of eosinophils in bronchoalveolar lavage fluid [10, 15]: reduced
influx of total leukocytes in bronchoalveolar lavage fluid [10, 15]: reduced
lymphocyte count in bronchoalveolar lavage fluid ([10]; all doses i.t., 72 h after OA): significant decrease
eosinophil count in bronchoalveolar lavage fluid (FIG. 4) [10, 16]: dose dependent inhibition
leukocyte count in bronchoalveolar lavage fluid (FIG. 3) [10, 16]: dose-dependent reduction
